These results are taken from US4032635A, “Pharmaceutical method for the therapy of immune diseases” (Zaidan Hojin Biseibutsu Kagaku Kenkyu Kai, priority 1975, dated 1977).

For data set [1], the system named is nucleic acid and/or protein synthesis. The conditions noted are these: cited from earlier work.
Data set [2] relates to autoimmune diseases, some infection allergies and dermatological contact allergies, transplantation immunological responses. To be noted: in vivo; cited from earlier work.
For data set [3], the system named is humoral and cell-mediated immunities. The conditions noted are these: cited from earlier work.
In data set [4] the test system is experimental allergic encephalomyelitis (EAE). The conditions noted are these: cited from earlier work; for EAE after discontinuation of the drug (known agents): after discontinuation and following a latent period; for suppression of development of EAE (known agents): at such high doses as would cause toxicity.
In data set [5] the test system is antibody formation, anaphylaxis or contact dermatitis. The conditions noted are these: in vivo; cited from earlier work.
The next data set relates to histidine decarboxylase. To be noted: cited from earlier work.
The subject of data set [6] is contact allergy induced by dinitrochlorobenzene (DNCB). The data set can be described thus: Suppression of contact allergy induced by dinitrochlorobenzene (DNCB). Further details: key to Skin Lesion Score, Animal No. 1 / Skin Lesion Score, Animal No. 2 / Skin Lesion Score, Animal No. 3: +: slight erythema; ++: marked erythema and slight swelling; +++: marked induration and swelling. Type of data set: in vivo, guinea pigs. To be noted: 100 mg./kg. i.p. at 0.5, 24 and 48 hours before challenge. Here is the method:
For example, approximately 0.1 ml. of a 10% solution of DNCB in acetone was administered percutaneously on the ear. Fourteen days later animals were skin tested on a shaved flank by topical spotting (about 0.05 ml.) of a 0.1% solution of DNCB in acetone. Skin lesions were evaluated and scored 24 hours later as follows:
Guinea pigs readily develop contact hypersensitivities of the delayed-type by simple topical application of DNCB.

Data set [7] has as its system Delayed-Type Hypersensitivity (DTH) to sheep red blood cells (SRBC). Description: Suppression of delayed-type hypersensitivity (SRBC footpad swelling). Type of data set: in vivo, mouse. To be noted: for inhibition in vivo at 1 mg: Erythrocyte, 1 mg./mouse i.p. Here is the method: The compounds of Formula (I) show suppression of various delayed-type hypersensitivity. In reference to the method by Lagrange [J. Exp. Med. 139, 528 (1974)], 10^8 sheep red blood cells (SRBC) without adjuvant were subcutaneously injected into the mouse hind footpad to immunize the animal. Four days later the animals were challenged by subcutaneous injection of 10^8 SRBC into another footpad. DTH response was measured as the increase in the thickness of footpad 24 hours after the injection of SRBC.
Varying doses of Compound-1 were administered orally or intraperitoneally either at the time of immunization (day 0) or challenge (day 4).
In FIG. 1 the ordinate indicates the swelling (× 0.1 mm.) of mice footpads on day 5 and the abscissa indicates the dose of Compound-1 per mouse administered by the oral (right) and intraperitoneal (left) routes. Solid line curve indicates the relationship when Compound-1 was administered on day 0 and the dotted line curve indicates the relationship when given on day 4.
The compounds were administered intraperitoneally in a dose 1 mg./mouse at the time of immunization (day 0) or challenge (day 4). Table 1 includes the results of humoral antibody response described later.

The next data set deals with rats. Description: One-month daily administration. To be noted: oral or i.p., daily 12.5, 50 or 200 mg./kg. It is filed as in vivo. Here is the method:
Compound-1 and Compound-2 were given orally or intraperitoneally to rats in daily doses of 12.5, 50 or 200 mg./kg., respectively, for one month.

For data set [8], the system named is passive cutaneous anaphylaxis (PCA). The data set can be described thus: Suppression of passive cutaneous anaphylaxis (PCA). Type of data set: in vivo, guinea pigs. To be noted: dilution giving a 10 mm. diameter blue zone; for Max. Dilution of Antiserum, i.p.: i.p. 50 mg./kg. Here is the method: The compounds of Formula (I) are active in suppressing passive cutaneous anaphylaxis (PCA) in guinea pigs. Guinea pigs received intradarmally serial dilutions of antiserum (0.1 ml.), which was obtained from guinea pigs immunized with a mixture of egg albumin and Freund's complete adjuvant. At the time of sensitization with antiserum, the compound of Formula (I) was administered either orally (100 mg./kg.) or intraperitoneally (50 mg./kg.).
Four hours later the animals were challenged by intravenous injection of a mixture of 5 mg. egg albumin and Evans blue dye. The reaction was measured 30 minutes later by the blue zone which emerged at the point of antiserum injection.

Data set [9] relates to primary antibody formation to sheep red blood cells (SRBC), spleen cells. The data set can be described thus: Suppression of primary antibody formation (plaque forming cells, Jerne's method). Type of data set: in vivo, mice (ddY-strain).
Procedure: 10^8 sheep red blood cells (SRBC) were injected intravenously into ddY-strain mice to immunize the animals, when the compounds of Formula (I) were administered intraperitoneally.
Each compound was administered intraperitoneally in the dosage of 1 mg./mouse.
The subject of data set [10] is primary antibody formation in spleen cell culture. Description: Antibody formation in spleen cell culture in vitro (hemolytic plaque assay). It is filed as cell-based, mice. Here is the method: Additional experiment to evaluate the effect of Compound-1 on primary antibody formation was made by spleen cell culture in vitro. According to the method described by Mishell and Dutton [J. Exp. Med., 126, 423 (1967)], dissociated spleen cells prepared from normal mice spleens were cultured with SRBC as antigen and at initiation of cultures Compound-1 was added, and then four days later, antibody formation in cultures was determined by Jerne's hemolytic plaque assay.

Data set [11] relates to systemic anaphylactic shock. Description: Suppression of systemic anaphylactic shock (egg albumin). It is filed as in vivo, mice. To be noted: for time of death after induction, Animal No. 1: control 16; for time of death after induction, Animal No. 2: control 25; for time of death after induction, Animal No. 3: control 27. Here is the method:
The mice were immunized by a subcutaneous injection of a mixture of 0.1 ml. (100 mcg.) egg albumin and 0.1 ml. Freund's complete adjuvant, and used for experiment four months thereafter. In control mice sensitized in the above manner, the shock symptom emerged after induction by intravenous injection of 100 mcg. egg albumin and most of the animals died from shock within about 40 minutes.
Table 3A show the suppression effect with Compound -1 when given as a single dose (0.25 or 1.0 mg./mouse, i.p.) at the time of sensitization. […] In the animals receiving the test drug, the time until death after induction was somewhat delayed and most of the animals survived the shock.

Data set [12] can be described thus: Acute toxicity, intraperitoneal. The conditions noted are these: mouse, in vivo, ip, mice, read-out: LD50 (approximate). Here is the method:
Acute toxicological studies were carried out on mice by intraperitoneal administration of the compounds of Formula (I). The approximate LD50 values for representative compounds are given as follows: […]

The subject of data set [13] is experimental allergic encephalomyelitis (EAE). The data set can be described thus: Suppression of experimental allergic encephalomyelitis (EAE). It is filed as in vivo, guinea pigs. To be noted: for recurrence of paralysis after discontinuation: after discontinuation of the drug. An excerpt:
By injecting basic protein (B.P.) the extract from central nervous tissue, together with Freund's complete adjuvant, a typical EAE symptom develops. Guinea pigs show drastic reduction of body weight and development of paralysis about ten days after injection with BP and they finally die within 17 days after the injection of BP.

A further data set concerns red blood cells. Description: Heat-induced hemolysis of red blood cells / cell membrane stabilization. To be noted: Compound-1 compared with mefenamic acid or indomethacin. It is filed as cell-based.
The mark [14] stands for this setting: 0.25 mg./mouse i.p. at the time of sensitization.
The mark [15] stands for this setting: 1.0 mg./mouse i.p. at the time of sensitization.
Setting [16] is: 10 mg. i.p. once daily, days 3 to 21 after antigen, five animals.

Where two headings read alike, the source gives them in different places.

Consider `O=P1(N(CCCl)CCCl)NCCCO1` (centres unmarked) [cyclophosphamide], for which the “effect on nucleic acid and/or protein synthesis” value in data set [1] is given as “disrupt nucleic acid and/or protein synthesis”. The “effectiveness in therapy of autoimmune diseases, allergies, transplantation responses” value in data set [2] is “effective in the therapy of autoimmune diseases, some infection allergies and dermatological contact allergies”. Further, in data set [3], the “dose at which effective / cytotoxicity” value was “effective in general only at near-lethal doses owing to their cytotoxicity”; the “inhibition of humoral and cell-mediated immunities” value was “inhibit both humoral and cell-mediated immunities”. Also, in data set [4], the “EAE after discontinuation of the drug (known agents)” value is reported as “the animals often develop paralytic EAE” and the “suppression of development of EAE (known agents)” value is listed as “can suppress the development of EAE”.

Turning to `NNC(Cc1c[nH]cn1)C(=O)O` (centres unmarked) [2-hydrazino-3-(4-imidazolyl)-propionic acid], the “inhibition of antibody formation, anaphylaxis or contact dermatitis” value in data set [5] was “inhibits antibody formation, anaphylaxis or contact dermatitis”. Also, the “inhibition of histidine decarboxylase” value with histidine decarboxylase is recorded as “inhibitor of histidine decarboxylase”.

For orientation: LD50 means the dose at which mortality reaches 50%. For `O=C(Nc1cc(Cl)c(O)c(Cl)c1)c1ccccc1O` [Compound-1, 3',5'-Dichloro-2,4'-dihydroxybenzanilide], the “inhibition of the response to DNCB” value in data set [6] is reported as “significant inhibition of the response to DNCB”. In addition, in data set [6] (control None +++), the “Skin Lesion Score, Animal No. 1” value was “+”; the “Skin Lesion Score, Animal No. 2” value is on record as “+”; the “Skin Lesion Score, Animal No. 3” value is on record as “++”. Also, the inhibition in vivo at 1 mg in data set [7] (96 h, at challenge (day 4), read-out: Suppression, Delayed-Type Hypersensitivity, Administered at Induction (suppression rate)) is above 75%. Further, in data set [7] (ip, 0 h, at immunization (day 0), read-out: Suppression, Delayed-Type Hypersensitivity, Administered at Immunization (suppression rate)), the inhibition in vivo at 1 mg fell in the range of 0 to 25%. Further, the “DTH suppression, administered on day 4 (FIG. 1)” value in data set [7] (varying doses, oral or i.p., at challenge (day 4)) was “DTH was suppressed in mice sensitized by footpad inoculation with SRBC”. Moreover, the “DTH suppression, given at sensitization (day 0) (FIG. 1)” value in [7] (varying doses, oral or i.p., at sensitization (day 0)) is “not active when given at the time of sensitization (day 0)”. Also, in the data set with rats, the “symptoms or abnormality attributable to the drug” value is reported as “no particular symptoms or abnormality attributable to the drug dosage was noted” and the weight gain entry is “normal”. The “Max. Dilution of Antiserum, i.p.” value in data set [8] (control 1024) stood at 64. In addition, in data set [8] (control 1350), the “Max. Dilution of Antiserum, i.p.” value worked out at 315. For the same compound, in [8] (oral 100 mg./kg., control 1060), the “Max. Dilution of Antiserum, Oral” value was determined as 548. For the same compound, the “primary antibody formation in spleen cells of treated mice (FIG. 3)” value in data set [9] (1000, 250, 62.5 and 15.6 mcg./mouse i.p.) is on record as “apparently suppressed in proportion to increased amounts of Compound-1”. In data set [9] (Erythrocyte, ip, 96 h, 1 mg./mouse i.p., read-out: Suppression, Plaque Forming Cells (suppression rate of primary antibody formation)), the inhibition in vivo at 1 mg is above 75%. The “cytotoxicity / anti-proliferative effect in vitro” value in data set [10] (in vitro) is reported as “not cytotoxic nor anti-proliferative in vitro”. Further, in data set [10] (spleen cell culture in vitro), the “number of nucleated cells in culture” value is given as “no changes in the number of nucleated cells” and the “viable cell count in culture” value is “no changes in the number of nucleated cells nor in the viable cell count”. Also, the “number of plaque forming cells in culture” value in data set [10] (spleen cell culture in vitro, four days) is given as “significantly decreased”. For the same compound, in [11] (setting [14]), the “time of death after induction, Animal No. 1” value worked out at 18 min; the “time of death after induction, Animal No. 2” value was found to be 21 min; the “time of death after induction, Animal No. 3” value stood at 22 min. Besides, the “time of death after induction, Mouse No. 1” value in [11] (1 mg./mouse i.p. at 0.5 and 5 hours before challenge, control 15) is 35 min. In data set [11] (setting [15]), the “time of death after induction, Animal No. 1” value stood at 22 min; the “time of death after induction, Animal No. 2” value turned out to be 23 min; the “time of death after induction, Animal No. 3” value was 30 min. Moreover, the LD50 in data set [12] was 2400 mg/kg. Moreover, the “time of paralysis after antigen injection” value in [13] (10 mg. i.p. once daily, days 3 to 21, four of five animals) was 13 to 16 days. In addition, in [13] (setting [16]), the “animals with paralysis to a certain degree and course of symptoms” value was “four others showed paralysis to a certain degree at 13-16 days but the symptoms of EAE soon disappeared”; the “animals without sign of paralysis” value was “one gave no sign of the development of paralysis”. Further, the “recurrence of paralysis after discontinuation” value in data set [13] is given as “no more paralytic symptoms recurred”. In addition, the “recurrence of paralysis after discontinuation” value in data set [13] (listed as compound-1) is recorded as “without recrudescence of paralysis after discontinuation of the drug”. The “suppressive effect on EAE” value in [13] (guinea pigs) was “potent suppressive effect on EAE”. Besides, the “suppression of heat-induced hemolysis of red blood cells” value in the data set on red blood cells is on record as “suppressed the heat-induced hemolysis of red blood cells to about the same extent as did mefenamic acid or indomethacin”.

Regarding `Sc1ncnc2nc[nH]c12` [6-mercaptopurine], the “effect on nucleic acid and/or protein synthesis” value in [1] is “disrupt nucleic acid and/or protein synthesis”. Besides, the “effectiveness in therapy of autoimmune diseases, allergies, transplantation responses” value in data set [2] is “effective in the therapy of autoimmune diseases, some infection allergies and dermatological contact allergies”. In addition, in data set [3], the “dose at which effective / cytotoxicity” value is “effective in general only at near-lethal doses owing to their cytotoxicity”; the “inhibition of humoral and cell-mediated immunities” value is “inhibit both humoral and cell-mediated immunities”. In data set [4], the “EAE after discontinuation of the drug (known agents)” value is given as “the animals often develop paralytic EAE” and the “suppression of development of EAE (known agents)” value is given as “can suppress the development of EAE”.

Regarding `CCOc1c(N)c2c(c(OCC)c1OCC)C(C1c3c(cc4c(c3OC)OCO4)CCN1C)OC2=O` (centres unmarked) [tritoqualine], the “inhibition of antibody formation, anaphylaxis or contact dermatitis” value in data set [5] is “inhibits antibody formation, anaphylaxis or contact dermatitis”. Further, in the data set on histidine decarboxylase, the “inhibition of histidine decarboxylase” value is listed as “inhibitor of histidine decarboxylase”.
